Measurements from patent US20150265644A1, “THERAPEUTIC METHODS AND COMPOSITIONS FOR TREATING DIABETES UTILIZING DITERPENOID COMPOUNDS” (Orient Europharma Co., Ltd., priority 2014, published 2015).

Test system: human hepatocellular carcinoma cell line Hep3B
Experiment: Glycogen content assay in Hep3B cells
Assay type: cell-based
Conditions: 30 minutes
Procedure: The C2C12 skeletal muscle cells were cultured in Dulbecco's modified Eagle's medium (DMEM; Gibco/Invitrogen, Carlsbad, Calif.), and the human hepatocellular carcinoma cell line, Hl-ep3B, was cultured in Roswell Park Memorial Institute medium 1640 (RPMI 1640 medium; Gibco/Invitrogen, Carlsbad, Calif.). Cells were cultured at 37° C. in the humidified incubator supplied with 5% CO2. Culture mediums were supplemented with 4.5 mgmL^−1 glucose, penicillin 100 IUmL^−1, streptomycin 100 μgmL^−1 and 10% fetal bovine serum (Gibco/Invitrogen, Carlsbad, Calif.). Only C2C12 cells were then switched to 2% horse serum for 3 days after reaching the 70% confluence. Myotubes formation was achieved after 4 days of incubation, and the cells were used for subsequent experiments. Culture mediums were replaced by serum free DMEM or RPMI for 24 h before experiments (see e.g., procedure described in Sultan et al., 2006).
C2C12 and Hep3B cells were treated with 1 nM insulin, 100 μM metformin, and the assigned concentration of borapetoside A for 30 minutes. To develop the insulin resistance state of cells, C2C12 cells were incubated with IL-6 at 20 ngmL^−1 for 1 hour. Later, the cells were treated with 1 nM insulin, 100 μM metformin, and the assigned concentration of borapetoside A for 30 minutes. After the assigned treatment, cells were washed twice with phosphate buffered saline (PBS). Glycogen content was measured as previously described, with some modifications (see e.g., Savage et al., 2008). The protein concentrations of the cell lysates were determined by using Pierce BCA Protein Assay Kit (Thermo-Scientific, Rockford, Ill.). The glycogen content of each sample was normalized by total protein.

C[C@@]12C[C@@H](c3ccoc3)OC(=O)[C@@H]1C[C@@H]1OC(=O)[C@@]3(O)[C@@H](O[C@@H]4O[C@H](CO)[C@@H](O)[C@H](O)[C@H]4O)CC[C@@H]2[C@@]13C [borapetoside A]
fold increase of glycogen content (10^−5 mol/L): 1.54±0.11 fold
fold increase of glycogen content (10^−6 mol/L): 1.39±0.12 fold
fold increase of glycogen content (10^−7 mol/L): 1.46±0.05 fold
